Test results from patent EP0637449A1, “Use of L-carnitine or acyl L-carnitines and valproate for treating seizure disorders” (Sigma-Tau Industrie Farmaceutiche Riunite S.p.A., priority 1993, dated 1995).

System: epileptic patients
Assay: Clinical trial: seizure frequency in epileptic patients on valproate with added L-carnitine
Format: in vivo
Conditions: 45 patients treated only with valproate for at least six months, then valproate and L-carnitine for at least one year; compared with the pre-treatment period (valproate only). Pre-carnitine vs greater than 12 months p<0.001; start-6 months vs greater than 12 months p=0.0001; 6-12 months vs greater than 12 months p=0.0001
Method: Fortyfive patients, 20 females and 25 males, mean age 24.5±8.48 years, were included in the study.
Some patients had more than one seizure type.
All of the patients had been treated only with valproate for at least six months.
Subsequently, they were treated with both valproate and L-carnitine for at least one year.
At intervals L-carnitine activity was assessed on some parameters including seizure frequency, in comparison with the pre-treatment period (valproate only, no L-carnitine). The intervals selected for all the controls were: between the start to 6 months of L-carnitine therapy, […], and L-carnitine therapy greater than 12 months.
Parameter assessment was not carried out at prefixed dates but within the 0-6, 6-12 and greater than 12 month periods in order to evaluate the seizure frequency over a sufficiently extended time period.

C[N+](C)(C)C[C@H](O)CC(=O)[O-] [L-carnitine]
seizure frequency: decreased progressively and steadily
